Ka data for one compound are collected here from article PMC4163640 (2014).

Each structure is given as a SMILES string.

Common to all, as to experiment: fluorescence titration
The subject of test [1] is G4 (DNA, G4) TTTTGGGGTTTT
The note with it: K+ 10 mM, Mg2+ 1 mM; 50 mM Tris-borate pH 8.3 (TB), 25 °C; 1:1 model.

Test [2] has as its system G8 (DNA, G4) TTTTGGGGGGGGTTTT
The note with it: K+ 10 mM, Mg2+ 1 mM; 50 mM Tris-borate pH 8.3 (TB), 25 °C; 1:1 model.

In test [3] the test system is G4T4G4 (DNA, G4) GGGGTTTTGGGG
As to conditions: K+ 5 mM, Li+ 95 mM; 10 mM lithium cacodylate pH 7.2 (5K), 25 °C; 1:1 model.

On to `CCc1c(C)c2cc3nc(cc4nc(cc5c(CC)c(C)c(cc1[nH]2)n5C)C(C)=C4CCC(=O)O)C(CCC(=O)O)=C3C`, for which the Ka entry in test [1] was “(1.4 ± 0.2) × 10^6 L·mol^-1”; in test [2], “(1.7 ± 0.2) × 10^6 L·mol^-1”; in test [3] it was “(1.26 ± 0.07) × 10^7 L·mol^-1”.
